Test results: patent US20220402948A1, “EGFR INHIBITOR, COMPOSITION AND PREPARATION METHOD THEREFOR” (BETTA PHARMACEUTICALS CO., LTD., priority 2019, published 2022)
pIC50: −log10 of the molar value.

How the values were obtained:
EGFRΔ19del/T790M/C797S = EGFRΔ19del/T790M/C797S (Homo sapiens, UniProt P00533, T790M/C797S, form not given); experiment: EGFR Δ19del/T790M/C797S kinase test (mobility variation analysis, Caliper EZ Reader); format: biochemical; conditions: kinase enzymatic activity, Table 1
How it was run: (§1)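 Kinase pre-incubated with compound 10 minutes at room temperature, then ATP plus peptide substrate added; substrate conversion read by mobility shift after stop solution. Percent inhibition normalized to no-compound and no-enzyme controls; IC50 from variable-slope log(inhibitor) fit.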

EGFR WT = EGFR WT (Homo sapiens, UniProt P00533); experiment: EGFR WT kinase test (mobility variation analysis, Caliper EZ Reader); format: biochemical; conditions: kinase enzymatic activity, Table 1
How it was run: as §1

IGF1R = IGF1R (Homo sapiens, UniProt P08069); experiment: IGF1R kinase test (mobility variation analysis, Caliper EZ Reader); format: biochemical; conditions: kinase enzymatic activity, Table 1; read-out: EGFR IGF1R IC50
How it was run: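 Kinase preincubated 10 min at room temperature with compound (10-point 3-fold series, top 3000 nM), then ATP and substrate added and reacted at room temperature. Substrate conversion read by mobility-shift (Caliper EZ Reader); % inhibition vs no-enzyme and no-compound controls fitted to variable-slope curve for IC50.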

[1] = target: Ba/F3 cells with EGFR Δ19del/T790M/C797S mutation gene stably overexpressed (Homo sapiens, UniProt P00533, T790M/C797S, cells depend on it, form not given); experiment: Ba/F3-Δ19del/T790M/C797S cell proliferation assay (CellTiter Glo, 72 hours); format: cell-based; conditions: Table 2, read-out: EGFR Δ19del/T790M/C797S IC50
How it was run: (§2)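 Ba/F3 cells stably overexpressing wild-type EGFR or EGFR Δ19del/T790M/C797S were seeded at 2000 cells/well and incubated 72 h with compound. Viability was read by CellTiter-Glo luminescence, and IC50 came from a four-parameter logistic fit of signal against log concentration.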

[2] = target: Ba/F3-EGFR wild-type cell line (Homo sapiens, UniProt P00533); experiment: Ba/F3-EGFR wild-type cell proliferation assay (CellTiter Glo, 72 hours); format: cell-based; conditions: Table 2, read-out: EGFR WT IC50
How it was run: as §2

A431 = A431 cell proliferation assay (CellTiter Glo, 72 hours); format: cell-based; conditions: Homo sapiens, A-431, 72 h, cell proliferation, A431, 72 hours, Table 2; read-out: A431 IC50
How it was run: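 A431 cells (2000/well) exposed 72 h to compound at 1000 nM down to 0.2 nM in 3-fold steps, 0.1% DMSO (0.5% for some series). Viability by CellTiter-Glo luminescence; IC50 by four-parameter nonlinear regression.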

Ba/F3-EGFR wild-type cell line, sequence (P00533 whole entry, change not shown): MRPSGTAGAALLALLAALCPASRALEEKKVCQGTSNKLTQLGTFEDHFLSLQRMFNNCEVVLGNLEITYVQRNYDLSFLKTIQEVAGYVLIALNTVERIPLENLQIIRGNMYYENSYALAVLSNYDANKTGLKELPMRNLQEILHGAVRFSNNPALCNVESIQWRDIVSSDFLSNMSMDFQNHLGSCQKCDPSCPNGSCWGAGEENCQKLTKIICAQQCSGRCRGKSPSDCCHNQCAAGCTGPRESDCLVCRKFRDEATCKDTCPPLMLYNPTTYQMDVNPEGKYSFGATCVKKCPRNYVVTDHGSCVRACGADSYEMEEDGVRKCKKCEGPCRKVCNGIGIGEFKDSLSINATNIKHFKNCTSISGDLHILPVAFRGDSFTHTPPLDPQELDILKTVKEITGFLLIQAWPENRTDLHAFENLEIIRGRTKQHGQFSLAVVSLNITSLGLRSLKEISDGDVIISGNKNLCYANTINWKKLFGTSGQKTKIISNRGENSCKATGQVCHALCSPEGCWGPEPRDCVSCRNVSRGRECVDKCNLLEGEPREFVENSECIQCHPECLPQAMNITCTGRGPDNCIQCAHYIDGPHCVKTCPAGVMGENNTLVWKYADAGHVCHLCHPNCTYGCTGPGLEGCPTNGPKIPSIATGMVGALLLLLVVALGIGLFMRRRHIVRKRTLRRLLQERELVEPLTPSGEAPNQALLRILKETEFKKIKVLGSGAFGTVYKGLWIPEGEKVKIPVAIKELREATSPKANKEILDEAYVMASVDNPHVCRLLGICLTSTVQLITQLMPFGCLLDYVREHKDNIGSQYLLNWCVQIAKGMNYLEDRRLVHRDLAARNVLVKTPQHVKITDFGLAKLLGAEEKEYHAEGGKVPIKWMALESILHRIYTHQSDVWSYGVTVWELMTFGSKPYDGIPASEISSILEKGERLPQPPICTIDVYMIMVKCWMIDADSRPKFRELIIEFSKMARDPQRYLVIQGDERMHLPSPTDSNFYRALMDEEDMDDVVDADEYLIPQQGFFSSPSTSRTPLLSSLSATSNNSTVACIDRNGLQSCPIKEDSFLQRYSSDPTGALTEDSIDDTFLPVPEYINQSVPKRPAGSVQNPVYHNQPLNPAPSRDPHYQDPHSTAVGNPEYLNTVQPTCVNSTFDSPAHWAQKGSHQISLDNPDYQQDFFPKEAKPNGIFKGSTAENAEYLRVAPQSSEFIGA
IGF1R, sequence (P08069 31-1367, species assumed): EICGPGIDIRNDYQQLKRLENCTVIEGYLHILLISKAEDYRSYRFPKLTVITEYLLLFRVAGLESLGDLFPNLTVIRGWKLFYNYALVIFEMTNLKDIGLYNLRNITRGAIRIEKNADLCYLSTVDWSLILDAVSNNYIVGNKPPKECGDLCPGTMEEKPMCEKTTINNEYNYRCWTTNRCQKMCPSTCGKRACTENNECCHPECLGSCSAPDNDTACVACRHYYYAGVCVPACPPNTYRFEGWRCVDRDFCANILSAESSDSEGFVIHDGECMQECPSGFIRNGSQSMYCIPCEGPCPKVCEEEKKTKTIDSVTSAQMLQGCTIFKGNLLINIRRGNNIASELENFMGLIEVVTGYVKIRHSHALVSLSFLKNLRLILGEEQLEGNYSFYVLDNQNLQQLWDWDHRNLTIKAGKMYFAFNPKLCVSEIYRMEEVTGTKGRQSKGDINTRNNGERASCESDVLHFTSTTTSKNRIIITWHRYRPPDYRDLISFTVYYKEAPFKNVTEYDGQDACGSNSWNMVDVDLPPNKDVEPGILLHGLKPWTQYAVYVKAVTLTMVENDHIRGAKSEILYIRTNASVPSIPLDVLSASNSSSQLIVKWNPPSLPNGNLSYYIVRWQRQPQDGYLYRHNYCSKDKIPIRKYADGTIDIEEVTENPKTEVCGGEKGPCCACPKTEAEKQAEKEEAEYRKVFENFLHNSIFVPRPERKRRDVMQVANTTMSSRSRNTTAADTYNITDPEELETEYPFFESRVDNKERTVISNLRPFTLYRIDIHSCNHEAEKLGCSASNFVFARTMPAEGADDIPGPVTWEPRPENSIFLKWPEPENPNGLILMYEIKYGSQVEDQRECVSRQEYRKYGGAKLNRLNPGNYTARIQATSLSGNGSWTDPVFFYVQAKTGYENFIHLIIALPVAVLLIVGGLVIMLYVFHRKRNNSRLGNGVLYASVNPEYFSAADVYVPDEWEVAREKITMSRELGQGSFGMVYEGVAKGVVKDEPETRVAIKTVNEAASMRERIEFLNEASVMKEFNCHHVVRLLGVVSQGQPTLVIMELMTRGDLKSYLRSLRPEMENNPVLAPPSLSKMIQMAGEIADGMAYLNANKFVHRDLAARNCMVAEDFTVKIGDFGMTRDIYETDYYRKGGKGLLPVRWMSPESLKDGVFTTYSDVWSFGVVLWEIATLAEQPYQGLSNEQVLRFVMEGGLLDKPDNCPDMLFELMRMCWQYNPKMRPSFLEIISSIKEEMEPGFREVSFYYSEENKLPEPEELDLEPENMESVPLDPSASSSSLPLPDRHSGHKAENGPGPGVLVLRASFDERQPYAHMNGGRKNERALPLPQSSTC
EGFR WT, sequence (P00533 25-1210): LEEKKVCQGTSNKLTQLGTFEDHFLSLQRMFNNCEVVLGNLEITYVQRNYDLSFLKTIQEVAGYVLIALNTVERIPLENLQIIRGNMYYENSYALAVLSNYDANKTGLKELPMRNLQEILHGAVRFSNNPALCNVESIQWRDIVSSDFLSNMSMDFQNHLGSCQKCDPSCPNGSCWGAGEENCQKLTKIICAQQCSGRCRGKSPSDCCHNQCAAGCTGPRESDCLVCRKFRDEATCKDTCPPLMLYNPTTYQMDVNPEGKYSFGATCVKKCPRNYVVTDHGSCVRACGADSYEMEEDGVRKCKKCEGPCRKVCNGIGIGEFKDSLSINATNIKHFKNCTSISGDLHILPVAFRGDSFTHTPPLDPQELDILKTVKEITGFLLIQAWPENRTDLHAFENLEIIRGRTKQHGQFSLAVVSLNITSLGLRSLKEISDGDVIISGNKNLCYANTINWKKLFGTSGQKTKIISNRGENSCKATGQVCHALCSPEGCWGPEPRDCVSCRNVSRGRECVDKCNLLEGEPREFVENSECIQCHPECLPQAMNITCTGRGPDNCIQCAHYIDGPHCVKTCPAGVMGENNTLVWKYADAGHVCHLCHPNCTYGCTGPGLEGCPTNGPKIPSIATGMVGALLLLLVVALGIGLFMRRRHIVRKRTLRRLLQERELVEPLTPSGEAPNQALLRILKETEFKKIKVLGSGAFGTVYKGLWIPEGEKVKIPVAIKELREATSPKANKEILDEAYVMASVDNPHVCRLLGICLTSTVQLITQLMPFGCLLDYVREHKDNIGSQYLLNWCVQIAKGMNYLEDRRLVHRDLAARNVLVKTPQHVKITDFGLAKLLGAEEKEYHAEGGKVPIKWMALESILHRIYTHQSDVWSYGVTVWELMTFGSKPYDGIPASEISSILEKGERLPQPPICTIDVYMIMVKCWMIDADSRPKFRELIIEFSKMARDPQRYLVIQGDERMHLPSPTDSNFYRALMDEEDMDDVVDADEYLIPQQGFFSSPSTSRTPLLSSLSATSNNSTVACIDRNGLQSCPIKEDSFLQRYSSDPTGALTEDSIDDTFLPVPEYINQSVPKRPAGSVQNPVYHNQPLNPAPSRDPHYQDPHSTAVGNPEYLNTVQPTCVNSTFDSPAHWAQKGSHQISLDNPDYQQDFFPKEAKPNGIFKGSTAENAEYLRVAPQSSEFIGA
Ba/F3 cells with EGFR Δ19del/T790M/C797S mutation gene stably overexpressed, sequence (P00533 with tags, fused parts or gaps DEL746-750/T790M/C797S, form open): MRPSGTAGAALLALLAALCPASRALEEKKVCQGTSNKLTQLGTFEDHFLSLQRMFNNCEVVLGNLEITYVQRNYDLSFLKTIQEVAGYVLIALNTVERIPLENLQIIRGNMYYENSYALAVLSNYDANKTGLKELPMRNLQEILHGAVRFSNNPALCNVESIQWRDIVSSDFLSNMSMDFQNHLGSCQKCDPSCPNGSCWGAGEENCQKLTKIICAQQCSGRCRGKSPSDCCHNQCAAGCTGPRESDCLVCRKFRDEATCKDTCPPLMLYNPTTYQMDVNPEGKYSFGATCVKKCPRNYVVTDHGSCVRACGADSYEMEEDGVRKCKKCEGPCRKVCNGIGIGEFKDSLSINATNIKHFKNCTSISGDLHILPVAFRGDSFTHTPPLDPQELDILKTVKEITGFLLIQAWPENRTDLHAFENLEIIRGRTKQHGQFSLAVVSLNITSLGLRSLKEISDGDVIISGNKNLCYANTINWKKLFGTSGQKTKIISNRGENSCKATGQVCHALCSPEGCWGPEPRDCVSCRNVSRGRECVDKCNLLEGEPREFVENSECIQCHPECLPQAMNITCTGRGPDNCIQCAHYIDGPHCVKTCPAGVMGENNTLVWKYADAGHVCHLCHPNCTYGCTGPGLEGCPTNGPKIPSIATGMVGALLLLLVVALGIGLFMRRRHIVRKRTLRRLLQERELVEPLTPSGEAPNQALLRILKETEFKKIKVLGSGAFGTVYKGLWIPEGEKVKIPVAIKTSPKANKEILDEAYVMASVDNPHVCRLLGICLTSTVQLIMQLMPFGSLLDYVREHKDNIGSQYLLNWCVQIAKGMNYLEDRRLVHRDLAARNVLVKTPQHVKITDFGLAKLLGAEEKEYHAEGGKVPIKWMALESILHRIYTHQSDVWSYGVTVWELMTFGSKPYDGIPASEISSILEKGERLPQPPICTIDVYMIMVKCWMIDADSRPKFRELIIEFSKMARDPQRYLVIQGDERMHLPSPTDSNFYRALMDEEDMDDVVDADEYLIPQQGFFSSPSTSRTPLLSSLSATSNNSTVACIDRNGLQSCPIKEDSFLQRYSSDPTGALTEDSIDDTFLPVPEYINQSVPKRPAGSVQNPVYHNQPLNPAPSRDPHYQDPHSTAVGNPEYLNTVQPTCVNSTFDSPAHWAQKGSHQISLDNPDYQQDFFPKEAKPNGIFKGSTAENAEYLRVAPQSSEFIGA

Structure (SMILES)	pIC50 (EGFRΔ19del/T790M/C797S)	pIC50 (EGFR WT)	pIC50 (IGF1R)	GI50 [1] [nM]	GI50 [2] [nM]	pIC50 (A431)
CCc1cc(Nc2ncc(Br)c(Nc3ccc(-n4cc(F)cn4)cc3P(C)(C)=O)n2)c(OC)cc1N1CCC(N2CCN(C)CC2)CC1 [Compound 44, (2-((5-Bromo-2-((5-ethyl-2-methoxy-4-(4-(4-methylpiperazin-1-yl)piperidin-1-yl)phenyl)amino)pyrimidin-4-yl)amino)-5-(4-fluoro-1H-pyrazol-1-yl)phenyl)dimethylphosphine oxide]	9.70	7.94	6.91	9.5	166	5.62
CCc1cc(Nc2ncc(Br)c(Nc3ccc(-c4cnc(N(C)C)cn4)cc3P(C)(C)=O)n2)c(OC)cc1N1CCC(N2CCN(C)CC2)CC1 [Compound 35, (2-((5-Bromo-2-((5-ethyl-2-methoxy-4-(4-(4-methylpiperazin-1-yl)piperidin-1-yl)phenyl)amino)pyrimidin-4-yl)amino)-5-(5-(dimethylamino)pyrazin-2-yl)phenyl)dimethylphosphine oxide]	9.30	7.67	6.62	3.1	259	< 5.00
CCc1cc(Nc2ncc(Br)c(Nc3ccc(-c4cnn(C)n4)cc3P(C)(C)=O)n2)c(OC)cc1N1CCC(N2CCN(C)CC2)CC1 [Compound 8, (2-((5-Bromo-2-((5-ethyl-2-methoxy-4-(4(4-methylpiperazin-1-yl)piperidin-1-yl)phenyl)amino)pyrimidin-4-yl)amino)-5-(2-methyl-2H-1,2,3-triazol-4-yl)phenyl)dimethylphosphine oxide]	9.40	7.97	7.17	3.3	181	6.11
CCc1cc(Nc2ncc(Br)c(Nc3ccc(-c4cnc(OC)nc4)cc3P(C)(C)=O)n2)c(OC)cc1N1CCC(N2CCN(C)CC2)CC1 [Compound 34, (2-((5-Bromo-2-((5-ethyl-2-methoxy-4-(4-(4-methylpiperazin-1-yl)piperidin-1-yl)phenyl)amino)pyrimidin-4-yl)amino)-5-(2-methoxypyrimidin-5-yl)phenyl)dimethylphosphine oxide]	9.70	7.53	7.04	5.8	180	5.29
CCc1cc(Nc2ncc(Br)c(Nc3ccc(-c4cscn4)cc3P(C)(C)=O)n2)c(OC)cc1N1CCC(N2CCN(C)CC2)CC1 [Compound 28, (2-((5-Bromo-2-((5-ethyl-2-methoxy-4-(4-(4-methylpiperazin-1-yl)piperidin-1-yl)phenyl)amino)pyrimidin-4-yl)amino)-5-(thiazol-4-yl)phenyl)dimethylphosphine oxide]	9.70	7.92	7.21	9.9	171	6.11

Second part, the compound after the results:

pIC50 (EGFRΔ19del/T790M/C797S)	pIC50 (EGFR WT)	pIC50 (IGF1R)	GI50 [1] [nM]	GI50 [2] [nM]	pIC50 (A431)	Structure (SMILES)
9.30	6.83	6.00	50.9	432	5.12	CCc1cc(Nc2ncc(Br)c(Nc3ccc(-c4nn(C)c5ncccc45)cc3P(C)(C)=O)n2)c(OC)cc1N1CCC(N(C)C)CC1 [Compound K-079, (2-((5-Bromo-2-((4-(4-(dimethylamino)piperidin-1-yl)-5-ethyl-2-methoxyphenyl)amino)pyrimidine-4-yl)amino)-5-(1-methyl-1H-pyrazolo[3,4-b]pyridin-3-yl)phenyl)dimethylphosphine oxide]
9.30	7.85	7.52	4.3	127	6.34	CCCc1cc(Nc2ncc(Br)c(Nc3ccc(-c4cnn(C)c4)cc3P(C)(C)=O)n2)c(OC)cc1N1CCC(N2CCN(C)CC2)CC1 [Compound K-043, (2-((5-Bromo-2-((2-methoxy-4-(4-(4-methylpiperazin-1-yl)piperidin-1-yl)-5-propylphenyl)amino)pyrimidin-4-yl)amino)-5-(1-methyl-1H-pyrazol-4-yl)phenyl)dimethylphosphine oxide]
9.52	7.25	6.92	6.4	63.5	5.80	COc1cc(Nc2ncc(Br)c(Nc3ccc(-c4cnc(C5CC5)cn4)cc3P(C)(C)=O)n2)c(C)cc1N1CCOCC1 [Compound K-033, (2-((5-Bromo-2-((5-methoxy-2-methyl-4-morpholinophenyl)amino)pyrimidin-4-yl)amino)-5-(5-cylopropylpyrazin-2-yl)phenyl)dimethylphosphine oxide]
9.40	7.19	7.43	20.9	219	5.91	CCOc1cc(Nc2ncc(Br)c(Nc3ccc(-c4cnn(C)n4)c(F)c3P(C)(C)=O)n2)c(C)cc1N1CCOCC1 [Compound K-034, (6-((5-Bromo-2-((5-ethoxy-2-methyl-4-morpholinophenyl)amino)pyrimidin-4-yl)amino)-2-fluoro-3-(2-methyl-2H-1,2,3-triazol-4-yl)phenyl)dimethylphosphine oxide]
9.52	7.37	7.31	18.6	146	5.78	CCOc1cc(Nc2ncc(Br)c(Nc3ccc(-c4ccc(C)cn4)cc3P(C)(C)=O)n2)c(C)cc1N1CCOCC1 [Compound K-035, (2-((5-Bromo-2-((5-ethoxy-2-methyl-4-morpholinophenyl)amino)pyrimidin-4-yl)amino)-5-(5-methylpyridin-2-yl)phenyl)dimethylphosphine oxide]
9.52	8.08	7.67	2.3	84	5.41	COc1cc(Nc2ncc(Br)c(Nc3ccc(-c4cnn(C)n4)cc3P(C)(C)=O)n2)c(C)cc1N1CCC(N2CCOCC2)CC1 [Compound K-021, (2-((5-Bromo-2-((5-methoxy-2-methyl-4-(4-morpholinopiperidin-1-yl)phenyl)amino)pyrimidin-4-yl)amino)-5-(2-methyl-2H-1,2,3-triazol-4-yl)phenyl)dimethylphosphine oxide]
9.64	7.68	6.78	16.4	268	5.61	C#Cc1cnn(-c2ccc(Nc3nc(Nc4cc(CC)c(N5CCC(N6CCN(C)CC6)CC5)cc4OC)ncc3Br)c(P(C)(C)=O)c2)c1 [Compound K-009, (2-((5-Bromo-2-((5-ethyl-2-methoxy-4-(4-(4-methylpiperazin-1-yl)piperidin-1-yl)phenyl)amino)pyrimidin-4-yl)amino)-5-(4-ethynyl-1H-pyrazol-1-yl)phenyl)dimethylphosphine oxide]
10.00	7.59	7.41	5.7	226	5.91	COc1cnn(-c2ccc(Nc3nc(Nc4cc(OC)c(N5CCN(C)CC5)cc4C)ncc3Br)c(P(C)(C)=O)c2)c1 [Compound K-028, (2-((5-Bromo-2-((5-methoxy-2-methyl-4-(4-methylpiperazin-1-yl)phenyl)amino)pyrimidin-4-yl)amino)-5-(4-methoxy-1H-pyrazol-1-yl)phenyl)-dimethylphosphine oxide]
9.70	7.83	7.48	16	48.7	6.27	COc1cc(Nc2ncc(Br)c(Nc3ccc(-c4nccs4)cc3P(C)(C)=O)n2)c(C)cc1N1CCC(N2CCN(C)CC2)CC1 [Compound K-019, (2-((5-Bromo-2-((5-methoxy-2-methyl-4-(4-(4-methylpiperazin-1-yl)piperidin-1-yl)phenyl)amino)pyrimidin-4-yl)amino)-5-(thiazol-2-yl)phenyl)dimethylphosphine oxide]
9.00	7.11	6.23	12.9	156	4.64	CCc1cc(Nc2ncc(Br)c(Nc3ccc(-c4ccccc4F)cc3P(C)(C)=O)n2)c(OC)cc1N1CCC(N2CCOCC2)CC1 [Compound K-048]
9.52	7.65	6.90	27.7	407	5.82	CCc1cc(Nc2ncc(Br)c(Nc3ccc(-c4nc(Cl)cs4)cc3P(C)(C)=O)n2)c(OC)cc1N1CCC(N2CCN(C)CC2)CC1 [Compound K-073, (2-((5-Bromo-2-((5-ethyl-2-methoxy-4-(4-(4-methylpiperazin-1-yl)piperidin-1-yl)phenyl)amino)pyrimidin-4-yl)amino)-5-(4-chlorothiazol-2-yl)phenyl)dimethylphosphine oxide]
